# Literature values as cited in US8329872B2, “Drug monitoring assay” (Novartis AG, priority 2007, dated 2012).
# Biological target: classical and novel protein kinase C (PKC) isoforms
compound,measurement,value
CN1CCN(c2nc(C3=C(c4c[nH]c5ccccc45)C(=O)NC3=O)c3ccccc3n2)CC1 [AEB071],ki values,in the nM range
